Consider 2 compounds from US20100298256A1, “ANTIVIRAL COMPOUNDS” (priority 2007, published 2010).

Data set [1] deals with AVA5 and APC103 cultures. Nature of the data set: Cytotoxicity by neutral red dye uptake in the HCV replicon cultures. It counts as cell-based. The note with it: at the concentrations used for the antiviral analyses. The procedure: (§1) Antiviral activity of the test compounds was assessed (Okuse et al., 2005, Antivir. Res. 65:23) in the stably HCV replicating line, AVA5 (genotype 1b, subgenomic, replicon, Blight et al., 2000, Sci. 290: 1972) and APC 103 ((genotype 1a, genomic replicon). (ODE) phosphodiester ribavirin prodrug were added to dividing cultures daily for three days. Cultures generally start the assay at 30-50% confluence and reach confluence during the last day of treatment. Intracellular HCV RNA levels and cytotoxicity (on 96 well plates) were used. A total of 12 untreated control cultures and triplicate cultures treated with α-interferon and 2′CmeC served as assay controls.
(§2) Triplicate cultures for HCV RNA levels were measured using a conventional blot hybridization method in which HCV RNA levels were normalized to the levels of β-actin RNA in each individual culture (Okuse et al., 2005, Antivir. Res. 65:23). Cytotoxicity was measured using an established neutral red dye uptake assay (Korba et al., 1992, Antivir. Res. 19:55, Okuse et al., Antivir. Res. 65:23). Test compounds were received as powders on dry ice and were dissolved in 100% tissue culture grade DMSO (Sigma, Inc.) at 10 mM. Aliquots of test compounds sufficient for one daily treatment were made in individual tubes and all material was stored at −20° C. […]
On the technique in general: In antiviral work, replicon cells carry a viral genome segment that copies itself.

Data set [2] relates to HCV replicon AVA5 (genotype 1b, subgenomic replicon). The data set can be described thus: HCV replication in cell culture, AVA5 replicon line (blot hybridization of HCV RNA). The note with it: AVA5 cultures, daily treatment for three days, normalized to β-actin RNA. Type of data set: cell-based. The procedure: as §1, §2
In data set [3] the test system is HCV replicon APC103 (genotype 1a, genomic replicon). Nature of the data set: HCV replication in cell culture, APC103 replicon line (blot hybridization of HCV RNA). Type of data set: cell-based. The settings on record: APC103 cultures, daily treatment for three days, normalized to β-actin RNA. The protocol: as §1, §2
The nature of data set [4]: CytoTox-ONE LDH release cytotoxicity assay, HepG2. Type of data set: cell-based. The settings on record: human, HepG2 cells, read-out: TC50 (toxic concentration decreasing cell viability by 50%). The procedure: (§3) CytoTox-ONE™ homogeneous membrane integrity assay kits (Promega) was used in the cytotoxicity studies. The assay measured the release of lactate dehyrodegenase (LDH) from cells with damaged membranes in a fluorometric, homogeneous format. […] The amount of fluorescence produced is proportional to the number of lysed cells. The cytotoxicity assessment assay was performed using a designed plate format […] for allocation of media, drug, cells, and virus in a 96 well plate. Six serially diluted concentrations of octadecyl-ethanediol-modified (ODE) phosphodiester Ribavirin prodrug was applied to the cells to derive the TC50 (toxic concentration of the drug decreasing the cell viability by 50%), TC90 (toxic concentration of the drug decreasing the cell viability by 90%) and TC95 (toxic concentration of the drug decreasing the cell viability by 95%) values.
A general note: Release of lactate dehydrogenase indicates damage to the cell membrane.

Data set [5] deals with HepG2 cells. Nature of the data set: CytoTox-ONE LDH release cytotoxicity assay, HepG2. Type of data set: cell-based. The procedure: as §3
Data set [6] in a line: CytoTox-ONE LDH release cytotoxicity assay, CEM. Type of data set: cell-based. The settings on record: human, CEM cells, read-out: TC50 (toxic concentration decreasing cell viability by 50%). The procedure:
as §3

Data set [7] concerns CEM cells. The data set can be described thus: CytoTox-ONE LDH release cytotoxicity assay, CEM. Type of data set: cell-based. The protocol: as §3
Data set [8] can be described thus: CytoTox-ONE LDH release cytotoxicity assay, PBMC. Type of data set: cell-based. The settings on record: PBMC cells, read-out: TC50 (toxic concentration decreasing cell viability by 50%). The procedure: as §3
Data set [9] concerns PBMC cells. Nature of the data set: CytoTox-ONE LDH release cytotoxicity assay, PBMC. Type of data set: cell-based. The protocol: as §3
In data set [10] the test system is influenza A.
Data set [11] can be described thus: in vivo. The note with it: male, CD-1, mouse, plasma.
Method: (§4) Plasma samples were collected at pre-dose, 1, 3, 6, 12, 24, 48, and 72 hours post-dose for P.O. treatment group and at pre-dose, 0.25, 2, 6, 12, 24, 48, and 72 hours post-dose for I.V. treatment group. All samples were collected within ±2 minutes of the targeted time.
(§5) Phenolphthalein was used as an internal standard. […] The samples were mixed by vortexing for 5 minutes, and centrifuged at 15,000 rpm at 4° C. for 10 minutes. A 150-μL aliquot of the supernatant was transferred to a 96-well plate and 10 uL of supernatant sample was injected into the LC-MS/MS system for analysis. In each analytical batch, PK samples were run concurrently with calibration standards (blank, 0, 5, 10, 25, 50, 100, 150, 300, and 500 ng/mL), and low, mid, high, and 10-fold dilution QC samples (15, 250, 400, and 2000 ng/m L).
A 1/Y^2 weighting factor was used.
Data set [12] is described as follows: in vitro. The note with it: dog.
Data set [13] concerns influenza A. The data set can be described thus: microbe, parasite or virus in culture. The note with it: MDCK, read-out: IC50 (minimum inhibitory drug concentration which reduces the CPE by 50%).
Data set [14] is described as follows: Pharmacokinetic study after single oral and intravenous administration in male CD-1 mice.
Method: as §4, §5
A 1/Y^2 weighting factor was used.

As for `NC(=O)c1ncn([C@@H]2O[C@H](CO)[C@@H](O)[C@H]2O)n1` [ribavirin, reference compound], in data set [1], the “toxicity (significant = greater than 50% depression of the dye uptake levels observed in untreated cells)” value is “Significant toxicity”.
The term AUC(0-inf) denotes total exposure, with the tail of the curve extrapolated. A low value points to low exposure. What is called AUC(0-t) is the area under the concentration-time curve up to a stated or last time point. Usually Cmax stands for the peak of the concentration-time curve. What is called Tmax is the time from dosing to the highest level. In general, clearance refers to the volume of plasma or blood freed of the substance per unit of time. Read a high clearance as efficient removal. What is called half-life is the time needed for the level to fall by half in the phase considered. A word on the bioavailability: it is dose-corrected exposure relative to a reference, in per cent. High values mean much systemic uptake, low ones little systemic uptake. Take `CCCCCCCCCCCCCCCCCCOCCOP(=O)(O)OC[C@H]1O[C@@H](n2cnc(C(N)=O)n2)[C@H](O)[C@@H]1O` [(ODE) phosphodiester ribavirin prodrug, 1-(5-O-{hydroxy[2-(octadecyloxy)ethoxy]phosphoryl}-beta-D-ribofuranosyl)-1H-1,2,4-triazole-3-carboxamide]: the “intracellular HCV RNA levels” value in [2] and in [3] was “selective reductions in intracellular HCV RNA levels” each time. Also, the “toxicity (significant = greater than 50% depression of the dye uptake levels observed in untreated cells)” value in data set [1] is given as “No significant toxicity”. In addition, the CC50 is 13.2 µM in [4], 14.1 µM in data set [6], 111 µM in [8] and 66.4 µM in data set [12]. Besides, the “TC90 (toxic concentration decreasing cell viability by 90%)” value is 28.32 µM in data set [5], 63.41 µM in data set [7] and 245 µM in data set [9]. The “TC95 (toxic concentration decreasing cell viability by 95%)” value in data set [5] was found to be 41.69 µM; in [7], 84.55 µM; in [9], 272 µM. Besides, in [10], the “therapeutic index (TI50 = TC50 / IC50)” value is recorded as “greater than 210”. Moreover, the AUC(0-inf) is 2660 ng·h/mL in data set [11] (iv, 5 mg/kg) and 1700 ng·h/mL in data set [11] (po, 30 mg/kg). In addition, the area under the curve AUC(0-t) in data set [11] (iv, 5 mg/kg) came to 2640 ng·h/mL; in data set [11] (po, 30 mg/kg), 1660 ng·h/mL. The highest concentration (Cmax) in data set [11] (iv, 5 mg/kg) worked out at 1960 ng/mL; in [11] (po, 30 mg/kg), 407 ng/mL. The Tmax in [11] (iv, 5 mg/kg) was determined as 0.25 h; in data set [11] (po, 30 mg/kg), 3 h. In data set [11] (iv, 5 mg/kg), this compound had a clearance of 31.3 mL/min/kg. In data set [11] (iv, 5 mg/kg), this compound showed a half-life of 1.13 h. The bioavailability in [11] (oral, 30 mg/kg) turned out to be 10.7%. For the same compound, the IC50 in [13] is under 0.316 µM. The “plasma levels (below LLOQ)” value was under 5 ng/mL in data set [14] (IV 5 mg/kg, from 12 hours to 72 hours post-dose) and under 5 ng/mL in data set [14] (PO 30 mg/kg, from 24 hours to 72 hours post-dose).
